Results taken from PMC9977398, “Next-generation membrane-active glycopeptide antibiotics that also inhibit bacterial cell division” (Chemical Science, 2023).
Converted amounts (≈) assume the structure as drawn. Where two headings read alike, the source gives them in different places.

Key:
[1] = tested on: exponential growth phase MRSA; test: Time-kill kinetics, exponentially growing MRSA; assay type: cell-based, S. aureus; settings: for time to complete eradication: exponentially growing MRSA; for minimum bactericidal concentration (MBC): log-phase MRSA
Protocol: To examine the antibacterial properties of the two leads, VanQbiph (4) and VanQAmC10 (8), the kinetics of bactericidal activity against exponentially growing, log-phase cells of MRSA was evaluated (Fig. 1B). The minimum bactericidal concentration (MBC) of VanQbiph (4) and VanQAmC10 (8) was at 2×MIC. […]
Time-kill kinetics assay 4
The bactericidal activity of the compounds was evaluated with the time kill kinetics assay.
MRSA ATCC 33591 cells were cultured in nutrient media at 37°C for 6 h. VanQAmC 10, VanQbiph, and vancomycin was added to the bacterial solution (~1.8×10^5 CFU/mL) with the working concentration of 25 μM. This was incubated at 37°C. At different time intervals (0, 1, 2, 3, 6 and 24 h) 20 μL of aliquots from that solution were serially diluted 10 -fold in 0.9 % saline. Then from the dilutions, 20 μL was plated on yeast -dextrose agar plates and incubated at 37°C for 24 h. The bacterial colonies were counted and results are represented in logarithmic scale, i.e. log10 (CFU/mL). […]

AB R674 (A. baumannii) = test: MIC determination, micro-dilution broth; assay type: cell-based
Protocol: (§1) The increase in the carbon content of substituted moieties from six (1) to seven (2 and 3) to ten (5) to twelve (4), increased activity. […]
(§2) Test compound was assayed in a micro -dilution broth format as per the CLSI guideline. The bacterial freeze dried stock samples were stored at -80 °C. About 5 μL of these stocks were added to 3 mL of the respective broth and the culture was grown for 6 h at 37°C with prior to the experiments. This 6 h grown culture was diluted to give effective cell concentration of 10 5 CFU/mL which was then used for determining MIC. Compounds were serially diluted 2 -fold, in sterile millipore water and 50 μL of these serial dilutions were added to the wells of 96 well plate followed by the addition of about 150 μL of bacterial solution. The plates were then incubated for 18-24 h at 37 °C. The O.D. value at 600 nm was recorded using TECAN (Infinite series, M200 pro) Plate Reade r. Each concentration had triplicate values and the whole experiment was done at least twice and the MIC value was determined by taking the average of triplicate O. D. values for each concentration and plotting it against concentration. The data was then subjected to sigmoidal fitting. From the curve the MIC value was determined, as the point where the O. D. was similar to that of control having no bacteria.

[2] = tested on: PA R590 (MDR strain of P. aeruginosa); test: MIC determination, micro-dilution broth; assay type: cell-based
Protocol: as §1, §2

[3] = tested on: AB 1425 (A. baumannii MTCC 1425); test: MIC determination, micro-dilution broth; assay type: cell-based
Protocol: as §1, §2

[4] = tested on: MRSA, methicillin-resistant S. aureus (ATCC 33591); test: MIC determination, micro-dilution broth; assay type: cell-based; settings: Staphylococcus aureus, read-out: Minimum inhibitory concentration, MRSA
Protocol: as §1, §2

B. subtilis = test: Cell wall biosynthesis inhibition assay (bubble assay); assay type: cell-based; settings: treatment at PEC
Protocol: To further study the mechanisms contributing to the growth retardation, microscopic studies were carried out upon treatment of B. subtilis with compounds. Upon inhibition of cell wall biosynthesis, holes are formed in the peptidoglycan layer where new cell wall material is no longer incorporated. The cytoplasmic membrane extrudes out of these perforations, appearing as bubbles on the cell surface when treated with a 1 : 3 mixture of acetic acid and methanol.[30] […]
and the untreated control were carefully removed from the well, washed with 0.9 % saline, and placed on glass slides. The biofilms were then stained with 10 μL of SYTO9 (60μM) and imaged using a Zeiss 510 Meta confocal laser-scanning microscope. The orthogonal projections of the images were processed with LSM 5 Image examiner. The experiment was performed three times independently and the image provided is representative of these.
Determination of MIC against B. subtilis
Overnight cultures of B. subtilis 168 were grown in 50 mL flasks in 5 mL BMM media. The bacteria in the mid-log phase were then incubated with compounds for 18 h at 37 ̊C in BMM media. The MIC was determined as the lowest concentration at which no visible bacterial OD […]
Determination of Physiologically Effective Concentration7
Overnight cultures of B. subtilis 168 were grown in 50 mL flasks with 10 mL of media. Upon growing to mid-log phase (an OD500 between 0.5 and 1), bacteria was inoculated in 100mL BMM in a 500 ml flask. When the cultures reach an OD500 of 0.35, the bacteria is aliquoted into separate conicals (50 mL) with 5 ml and compounds are added. The O.D. of the solutions are recorded every 30 minutes. The concentration which retards the growth of bacteria was selected as the PEC. The experiments were performed two times independently and the images are representative of results from two independent experiments. The experiment was done together with the compound published in (J. Med. Chem. 64, 2021, 10185) and therefore the graph for vancomycin is the same.
Cell wall biosynthesis inhibition assay or Bubble assay […]

[5] = tested on: stationary phase cells of MRSA; test: Antibacterial activity against stationary phase bacteria; assay type: cell-based, S. aureus; settings: for time to complete eradication: stationary phase MRSA
Protocol: The stationary phase cells and persister cells are metabolically repressed and phenotypically different from the log-phase cells.[27] For activity, the commonly used drugs, vancomycin, and linezolid require actively ongoing cellular processes. They are therefore ineffective against non-dividing bacteria. […] The integrity of the bacterial membrane is imperative to survival irrespective of metabolic state. […] It completely eradicated cells in 24 h at 10 μM and within 6 h at 20 μM. […]
Antibacterial activity against stationary phase bacteria
MRSA ATCC 33591 was grown to mid-log phase at 37 °C. The bacterial suspension was diluted 1000-fold in nutrient media and allowed to reach stationary phase in 16 h. The bacterial suspension was diluted and spot-plated to determine the bacterial count. The 16 h growth culture was diluted to ~10^6 CFU/mL in PBS. 150 μL of this bacterial suspension was then incubated with 50 μL of test compounds in a 96 well-plate. The compound and bacteria were then incubated at 37 °C for 2h. The suspension was serially diluted 10 fold and spot-plated on […]. The viable bacteria were then counted after 48 h incubation at 37 °C. The results represented are the average of two independent experiments carried in duplicates. […]

[6] = Acinetobacter baumannii, read-out: Minimum inhibitory concentration, AB R674
[7] = Pseudomonas aeruginosa, read-out: Minimum inhibitory concentration, PA R590
[8] = Acinetobacter baumannii, MTCC1425, read-out: Minimum inhibitory concentration, AB 1425

`CNC(CC(C)C)C(=O)NC1C(=O)NC(CC(N)=O)C(=O)NC2C(=O)NC3C(=O)NC(C(=O)NC(C(=O)NCCC[N+](C)(C)Cc4ccc(-c5ccccc5)cc4)c4cc(O)cc(O)c4-c4cc3ccc4O)C(O)c3ccc(c(Cl)c3)Oc3cc2cc(c3OC2OC(CO)C(O)C(O)C2OC2CC(C)(N)C(O)C(C)O2)Oc2ccc(cc2Cl)C1O` (stereo not drawn) [VanQbiph (4)] was tested, and the “time to complete eradication” value ([1]; 8×MIC) was 24 h, the “minimum bactericidal concentration (MBC)” value [1] was 2 ×MIC and the MIC (AB R674 (A. baumannii); Acinetobacter baumannii; read-out: Minimum inhibitory concentration, AB R674) was 24.5 µM. The MIC ([2]; Pseudomonas aeruginosa; read-out: Minimum inhibitory concentration, PA R590) was > 30 µM, the MIC ([3]; Acinetobacter baumannii, MTCC1425; read-out: Minimum inhibitory concentration, AB 1425) was 15.7 µM and the MIC ([4]; MRSA ATCC 33591) was 0.5 µM. The “cell wall biosynthesis inhibition (bubbles after acetic acid/methanol fixation)” value (B. subtilis) was “showed bubbles on the surface” and the “time to complete eradication” value ([5]; 20 μM) was 24 h.
In the case of `CCCCCCCCCCNC(=O)C[N+](C)(C)CCCNC(=O)C1NC(=O)C2NC(=O)C(NC(=O)C3NC(=O)C(CC(N)=O)NC(=O)C(NC(=O)C(CC(C)C)NC)C(O)c4ccc(c(Cl)c4)Oc4cc3cc(c4OC3OC(CO)C(O)C(O)C3OC3CC(C)(N)C(O)C(C)O3)Oc3ccc(cc3Cl)C2O)c2ccc(O)c(c2)-c2c(O)cc(O)cc21` (stereo not drawn) [VanQAmC10 (8)], the “time to complete eradication” value ([1]; 8×MIC) is reported as ≤ 6 h, the “minimum bactericidal concentration (MBC)” value [1] is reported as 2 ×MIC and the MIC (AB R674 (A. baumannii); [6]) is reported as 10 µM. The MIC [2, 7] was 3.1 µM, the MIC [3, 8] was 6.3 µM and the MIC [4] was 0.4 µM. The “cell wall biosynthesis inhibition (bubbles after acetic acid/methanol fixation)” value (B. subtilis) was “showed bubbles on the surface”, the “time to complete eradication” value ([5]; 10 μM) was 24 h and the “time to complete eradication” value ([5]; 20 μM) was “up to 6 h”.
For `CN[C@H](CC(C)C)C(=O)N[C@H]1C(=O)N[C@@H](CC(N)=O)C(=O)N[C@H]2C(=O)N[C@H]3C(=O)N[C@H](C(=O)N[C@H](C(=O)O)c4cc(O)cc(O)c4-c4cc3ccc4O)[C@H](O)c3ccc(c(Cl)c3)Oc3cc2cc(c3O[C@@H]2O[C@H](CO)[C@@H](O)[C@H](O)[C@H]2O[C@H]2C[C@](C)(N)[C@H](O)[C@H](C)O2)Oc2ccc(cc2Cl)[C@H]1O` [Vancomycin, reference compound], the “time to complete eradication” value ([1]; 2×MIC) was 24 h, the MIC (AB R674 (A. baumannii); [6]) was 100 µM (≈ 145 µg/mL) and the MIC [2, 7] was 100 µM (≈ 145 µg/mL). For the same compound, the MIC [3, 8] was 100 µM (≈ 145 µg/mL), the MIC [4] was 0.6 µM (≈ 0.87 µg/mL) and the “cell wall biosynthesis inhibition (bubbles after acetic acid/methanol fixation)” value (B. subtilis) was “showed bubbles on the surface”. The “effect on viable stationary phase cells” value ([5]; 40 μM, 24 h) was “did not reduce the number of viable stationary phase cells”.
